Article PMC12136031 (Science Advances, 2025)
Read-outs that look alike come from different tables or passages of the source.

How the values were obtained:
[1] = molecular target: T1, NET (Homo sapiens, UniProt P23975); assay: Safety47 Transporter NET; format: cell-based; conditions: Blocker; for Emax: read-out: Max Response; for IC50: read-out: RC50 (IC50)
T1 construct: purchased Eurofins Panlab Safety47 Safety Scan

[2] = molecular target: T2, AChE (Homo sapiens, UniProt P22303); assay: Safety47 Enzymatic AChE; format: biochemical; conditions: Inhibitor; for Emax: read-out: Max Response; for IC50: read-out: RC50 (IC50)
T2 construct: purchased Eurofins Panlab (Safety47 Safety Scan, contract panel)

[3] = molecular target: T3, HRH2 (Homo sapiens, UniProt P25021); assay: Safety47 cAMP HRH2; format: cell-based; conditions: for Emax: read-out: Max Response; for EC50: read-out: RC50 (EC50); for IC50: read-out: RC50 (IC50)
T3 construct: purchased Eurofins Panlab Safety47 Safety Scan

[4] = molecular target: T4, ROCK1 (Homo sapiens, UniProt Q13464); assay: Safety47 Kinase Binding ROCK1; conditions: Kinases, Inhibitor; for Emax: read-out: Max Response; for IC50: read-out: RC50 (IC50)
T4 construct: purchased Eurofins Panlab (Safety47 Safety Scan, contract panel)

[5] = molecular target: T5, ADORA2A (Homo sapiens, UniProt P29274); assay: Safety47 Calcium Flux ADORA2A; format: cell-based; conditions: for Emax: read-out: Max Response; for EC50: read-out: RC50 (EC50); for IC50: read-out: RC50 (IC50)
T5 construct: purchased Eurofins Panlab Safety47 Safety Scan

[6] = molecular target: T6, ADRB1 (Homo sapiens, UniProt P08588); assay: Safety47 cAMP ADRB1; format: cell-based; conditions: for Emax: read-out: Max Response; for EC50: read-out: RC50 (EC50); for IC50: read-out: RC50 (IC50)
T6 construct: purchased Eurofins Panlab Safety47 Safety Scan

[7] = molecular target: T7, NAV1.5 (Homo sapiens, UniProt Q14524); assay: Safety47 Ion Channel NAV1.5; format: cell-based; conditions: Blocker; for Emax: read-out: Max Response; for IC50: read-out: RC50 (IC50)
T7 construct: purchased Eurofins Panlab (Safety47 Safety Scan, contract panel)

[8] = molecular target: T8, HRH1 (Homo sapiens, UniProt P35367); assay: Safety47 Calcium Flux HRH1; format: cell-based; conditions: for Emax: read-out: Max Response; for EC50: read-out: RC50 (EC50); for IC50: read-out: RC50 (IC50)
T8 construct: purchased Eurofins Panlab Safety47 Safety Scan

[9] = molecular target: T9, CHRM3 (Homo sapiens, UniProt P20309); assay: Safety47 Calcium Flux CHRM3; format: cell-based; conditions: for Emax: read-out: Max Response; for EC50: read-out: RC50 (EC50); for IC50: read-out: RC50 (IC50)
T9 construct: purchased Eurofins Panlab Safety47 Safety Scan

[10] = molecular target: T10, AVPR1A (Homo sapiens, UniProt P37288); assay: Safety47 Calcium Flux AVPR1A; format: cell-based; conditions: for Emax: read-out: Max Response; for EC50: read-out: RC50 (EC50); for IC50: read-out: RC50 (IC50)
T10 construct: purchased Eurofins Panlab Safety47 Safety Scan

[11] = molecular target: T11, AR (Homo sapiens, UniProt P10275); assay: Safety47 NHR Nuclear Translocation AR; format: cell-based; conditions: for Emax: read-out: Max Response; for EC50: read-out: RC50 (EC50); for IC50: read-out: RC50 (IC50)
T11 construct: purchased Eurofins Panlab (Safety47 Safety Scan, contract panel)
T11 sequence (P10275 1-920): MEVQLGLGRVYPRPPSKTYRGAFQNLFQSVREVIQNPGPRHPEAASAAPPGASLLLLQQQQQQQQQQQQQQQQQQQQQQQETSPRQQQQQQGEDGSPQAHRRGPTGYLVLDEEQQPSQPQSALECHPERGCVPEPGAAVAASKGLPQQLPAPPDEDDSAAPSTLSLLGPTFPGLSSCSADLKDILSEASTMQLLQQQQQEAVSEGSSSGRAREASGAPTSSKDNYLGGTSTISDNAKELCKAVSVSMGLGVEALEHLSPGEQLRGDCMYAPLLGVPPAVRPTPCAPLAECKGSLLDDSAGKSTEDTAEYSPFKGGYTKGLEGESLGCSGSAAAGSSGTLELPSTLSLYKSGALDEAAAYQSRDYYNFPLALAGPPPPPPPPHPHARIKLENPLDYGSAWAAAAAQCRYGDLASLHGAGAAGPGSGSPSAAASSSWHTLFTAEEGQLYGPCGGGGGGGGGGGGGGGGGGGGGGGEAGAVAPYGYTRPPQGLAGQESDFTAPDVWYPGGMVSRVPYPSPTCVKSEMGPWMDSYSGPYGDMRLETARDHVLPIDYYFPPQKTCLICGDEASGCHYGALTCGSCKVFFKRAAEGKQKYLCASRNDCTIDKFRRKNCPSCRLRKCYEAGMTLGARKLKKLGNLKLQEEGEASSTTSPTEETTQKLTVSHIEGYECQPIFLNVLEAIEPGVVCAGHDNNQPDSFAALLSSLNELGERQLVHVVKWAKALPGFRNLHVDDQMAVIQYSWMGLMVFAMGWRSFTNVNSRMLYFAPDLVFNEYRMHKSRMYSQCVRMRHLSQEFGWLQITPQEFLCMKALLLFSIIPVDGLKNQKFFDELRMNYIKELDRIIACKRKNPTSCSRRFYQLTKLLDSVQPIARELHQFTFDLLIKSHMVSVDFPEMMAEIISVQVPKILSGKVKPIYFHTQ

[12] = molecular target: T12, CCKAR (Homo sapiens, UniProt P32238); assay: Safety47 Calcium Flux CCKAR; format: cell-based; conditions: for Emax: read-out: Max Response; for EC50: read-out: RC50 (EC50); for IC50: read-out: RC50 (IC50)
T12 construct: purchased Eurofins Panlab Safety47 Safety Scan
T12 sequence (P32238 1-428): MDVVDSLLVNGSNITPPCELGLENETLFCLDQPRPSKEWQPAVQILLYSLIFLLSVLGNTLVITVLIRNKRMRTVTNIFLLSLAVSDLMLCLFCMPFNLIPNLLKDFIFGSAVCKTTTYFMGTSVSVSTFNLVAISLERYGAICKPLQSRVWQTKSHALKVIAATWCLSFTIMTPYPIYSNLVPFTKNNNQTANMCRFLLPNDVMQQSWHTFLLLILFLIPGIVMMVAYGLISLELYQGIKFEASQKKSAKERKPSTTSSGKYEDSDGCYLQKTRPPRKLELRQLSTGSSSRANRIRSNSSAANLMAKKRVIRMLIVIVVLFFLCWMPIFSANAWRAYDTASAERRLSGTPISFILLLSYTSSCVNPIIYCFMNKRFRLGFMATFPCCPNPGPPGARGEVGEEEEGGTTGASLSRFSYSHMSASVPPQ

T9 sequence (P20309 whole entry): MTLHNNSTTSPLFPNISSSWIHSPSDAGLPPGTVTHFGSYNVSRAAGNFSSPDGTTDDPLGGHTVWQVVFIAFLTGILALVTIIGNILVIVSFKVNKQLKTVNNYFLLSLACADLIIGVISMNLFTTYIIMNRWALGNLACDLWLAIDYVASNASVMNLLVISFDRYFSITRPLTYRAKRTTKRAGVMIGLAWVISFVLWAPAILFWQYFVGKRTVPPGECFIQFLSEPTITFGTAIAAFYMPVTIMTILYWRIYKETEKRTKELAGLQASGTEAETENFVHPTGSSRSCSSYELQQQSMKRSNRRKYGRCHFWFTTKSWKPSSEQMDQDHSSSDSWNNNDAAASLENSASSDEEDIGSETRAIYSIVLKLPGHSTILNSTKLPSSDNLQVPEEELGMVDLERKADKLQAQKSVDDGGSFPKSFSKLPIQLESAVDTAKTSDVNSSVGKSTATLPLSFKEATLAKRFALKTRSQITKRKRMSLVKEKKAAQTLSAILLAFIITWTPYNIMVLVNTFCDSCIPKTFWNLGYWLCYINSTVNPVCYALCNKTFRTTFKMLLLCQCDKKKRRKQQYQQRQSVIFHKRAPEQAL
T5 sequence (P29274 whole entry): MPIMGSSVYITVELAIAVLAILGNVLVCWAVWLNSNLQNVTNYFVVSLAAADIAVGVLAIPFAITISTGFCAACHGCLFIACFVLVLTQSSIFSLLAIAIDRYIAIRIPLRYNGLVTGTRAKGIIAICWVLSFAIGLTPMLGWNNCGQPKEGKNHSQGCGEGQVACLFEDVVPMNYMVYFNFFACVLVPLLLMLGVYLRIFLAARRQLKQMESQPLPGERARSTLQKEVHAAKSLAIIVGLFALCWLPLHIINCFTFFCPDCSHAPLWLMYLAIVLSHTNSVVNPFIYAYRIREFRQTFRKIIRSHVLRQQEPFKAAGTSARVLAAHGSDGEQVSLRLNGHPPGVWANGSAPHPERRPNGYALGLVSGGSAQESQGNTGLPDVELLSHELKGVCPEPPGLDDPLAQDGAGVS
T8 sequence (P35367 whole entry): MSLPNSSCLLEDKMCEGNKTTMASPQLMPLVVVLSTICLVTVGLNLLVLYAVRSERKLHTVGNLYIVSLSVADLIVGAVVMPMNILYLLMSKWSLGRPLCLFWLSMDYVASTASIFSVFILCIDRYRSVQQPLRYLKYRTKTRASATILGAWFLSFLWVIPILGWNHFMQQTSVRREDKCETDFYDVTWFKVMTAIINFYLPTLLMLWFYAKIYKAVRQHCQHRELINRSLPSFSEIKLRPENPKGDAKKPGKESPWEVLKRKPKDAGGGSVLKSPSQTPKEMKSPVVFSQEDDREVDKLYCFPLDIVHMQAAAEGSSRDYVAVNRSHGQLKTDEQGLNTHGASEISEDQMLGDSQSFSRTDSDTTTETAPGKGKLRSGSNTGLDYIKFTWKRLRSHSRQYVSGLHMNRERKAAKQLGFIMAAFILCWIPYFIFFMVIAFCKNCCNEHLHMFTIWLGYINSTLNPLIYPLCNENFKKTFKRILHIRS
T4 sequence (Q13464 whole entry, species assumed): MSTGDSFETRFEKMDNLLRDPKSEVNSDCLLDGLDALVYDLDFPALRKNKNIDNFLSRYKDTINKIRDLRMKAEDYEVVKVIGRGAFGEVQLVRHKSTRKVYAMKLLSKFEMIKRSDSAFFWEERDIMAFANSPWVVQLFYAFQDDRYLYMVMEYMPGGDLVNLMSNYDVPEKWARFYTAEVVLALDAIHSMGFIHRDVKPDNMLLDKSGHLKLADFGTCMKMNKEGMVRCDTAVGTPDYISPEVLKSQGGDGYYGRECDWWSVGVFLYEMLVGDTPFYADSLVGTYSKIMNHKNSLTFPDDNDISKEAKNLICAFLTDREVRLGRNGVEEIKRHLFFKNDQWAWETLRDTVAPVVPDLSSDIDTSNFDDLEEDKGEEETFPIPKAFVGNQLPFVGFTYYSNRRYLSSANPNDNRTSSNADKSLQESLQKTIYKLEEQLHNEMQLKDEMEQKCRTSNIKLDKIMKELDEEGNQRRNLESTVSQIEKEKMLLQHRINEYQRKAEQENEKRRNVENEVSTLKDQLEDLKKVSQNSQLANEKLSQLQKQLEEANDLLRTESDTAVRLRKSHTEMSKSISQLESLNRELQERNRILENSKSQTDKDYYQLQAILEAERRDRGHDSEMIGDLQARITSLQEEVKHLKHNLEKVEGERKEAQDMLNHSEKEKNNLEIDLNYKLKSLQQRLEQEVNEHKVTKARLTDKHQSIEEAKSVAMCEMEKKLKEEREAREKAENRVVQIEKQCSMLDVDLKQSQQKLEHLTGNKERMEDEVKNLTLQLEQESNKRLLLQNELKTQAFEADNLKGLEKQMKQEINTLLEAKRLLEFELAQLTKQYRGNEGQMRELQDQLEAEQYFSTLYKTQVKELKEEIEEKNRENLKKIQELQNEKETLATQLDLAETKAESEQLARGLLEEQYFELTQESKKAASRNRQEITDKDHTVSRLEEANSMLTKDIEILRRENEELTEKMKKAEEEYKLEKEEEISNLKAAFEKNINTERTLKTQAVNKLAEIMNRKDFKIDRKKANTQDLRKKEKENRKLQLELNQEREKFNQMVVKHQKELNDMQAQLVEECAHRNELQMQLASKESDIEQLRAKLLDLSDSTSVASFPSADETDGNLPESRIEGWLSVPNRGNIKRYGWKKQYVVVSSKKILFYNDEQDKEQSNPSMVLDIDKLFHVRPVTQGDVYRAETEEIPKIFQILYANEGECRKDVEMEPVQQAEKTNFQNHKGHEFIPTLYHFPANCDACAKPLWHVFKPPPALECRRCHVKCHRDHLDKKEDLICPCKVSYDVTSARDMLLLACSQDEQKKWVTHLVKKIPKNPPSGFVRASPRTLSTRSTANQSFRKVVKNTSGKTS
T6 sequence (P08588 whole entry): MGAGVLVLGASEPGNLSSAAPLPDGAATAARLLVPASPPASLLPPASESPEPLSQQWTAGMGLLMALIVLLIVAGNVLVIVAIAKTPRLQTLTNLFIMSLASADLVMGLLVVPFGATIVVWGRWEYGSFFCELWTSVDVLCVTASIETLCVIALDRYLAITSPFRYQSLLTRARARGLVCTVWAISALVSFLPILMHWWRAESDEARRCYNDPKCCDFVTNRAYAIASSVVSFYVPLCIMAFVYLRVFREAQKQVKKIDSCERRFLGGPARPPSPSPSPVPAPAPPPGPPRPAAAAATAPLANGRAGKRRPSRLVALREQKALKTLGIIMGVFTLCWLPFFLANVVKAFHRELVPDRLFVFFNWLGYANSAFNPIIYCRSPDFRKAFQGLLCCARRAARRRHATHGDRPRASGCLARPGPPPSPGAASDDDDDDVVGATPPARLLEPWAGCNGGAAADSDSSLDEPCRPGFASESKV
T2 sequence (P22303 32-614): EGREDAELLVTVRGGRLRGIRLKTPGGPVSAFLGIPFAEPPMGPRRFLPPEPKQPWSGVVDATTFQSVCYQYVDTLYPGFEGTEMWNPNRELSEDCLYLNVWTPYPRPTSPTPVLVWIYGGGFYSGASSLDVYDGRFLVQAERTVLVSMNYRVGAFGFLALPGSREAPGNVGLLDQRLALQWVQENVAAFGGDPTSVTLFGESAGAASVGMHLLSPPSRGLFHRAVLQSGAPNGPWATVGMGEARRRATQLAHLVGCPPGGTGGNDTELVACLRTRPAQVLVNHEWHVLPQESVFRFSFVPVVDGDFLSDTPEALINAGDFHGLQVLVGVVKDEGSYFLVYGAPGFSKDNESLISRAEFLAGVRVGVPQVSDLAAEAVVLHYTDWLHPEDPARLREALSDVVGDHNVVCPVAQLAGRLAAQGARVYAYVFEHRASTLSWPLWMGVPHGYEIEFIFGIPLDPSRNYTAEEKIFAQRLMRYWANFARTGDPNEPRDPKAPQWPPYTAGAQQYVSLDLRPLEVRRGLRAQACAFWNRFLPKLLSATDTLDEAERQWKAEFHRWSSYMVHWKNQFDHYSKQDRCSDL
T10 sequence (P37288 whole entry): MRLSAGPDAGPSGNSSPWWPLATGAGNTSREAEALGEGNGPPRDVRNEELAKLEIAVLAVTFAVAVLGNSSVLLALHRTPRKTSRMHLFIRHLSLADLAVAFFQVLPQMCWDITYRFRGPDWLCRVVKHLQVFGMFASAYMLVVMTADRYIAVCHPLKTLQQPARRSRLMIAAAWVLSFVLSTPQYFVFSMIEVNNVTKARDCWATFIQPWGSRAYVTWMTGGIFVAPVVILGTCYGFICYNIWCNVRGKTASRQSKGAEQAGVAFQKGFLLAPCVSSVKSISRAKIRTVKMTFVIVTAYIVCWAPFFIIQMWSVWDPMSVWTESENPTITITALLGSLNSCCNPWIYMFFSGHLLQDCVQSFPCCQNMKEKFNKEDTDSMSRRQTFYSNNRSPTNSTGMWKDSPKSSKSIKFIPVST
T3 sequence (P25021 whole entry): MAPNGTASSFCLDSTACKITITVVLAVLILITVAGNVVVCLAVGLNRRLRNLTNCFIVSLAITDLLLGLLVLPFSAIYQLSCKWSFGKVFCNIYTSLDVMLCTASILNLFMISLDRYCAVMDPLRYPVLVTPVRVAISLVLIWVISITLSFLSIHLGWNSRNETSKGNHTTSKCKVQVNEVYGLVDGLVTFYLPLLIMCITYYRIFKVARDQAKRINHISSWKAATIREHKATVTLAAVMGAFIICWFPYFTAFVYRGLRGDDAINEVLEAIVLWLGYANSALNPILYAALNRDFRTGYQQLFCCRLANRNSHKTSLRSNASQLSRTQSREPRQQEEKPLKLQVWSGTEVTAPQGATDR

## Cl.c1ccc2c(Nc3ccc4[nH]ccc4c3)nc(-c3ccncc3)nc2c1 [BC18630, N-1H-indol-5-yl-2-pyridin-4-ylquinazolin-4-amine hydrochloride]
[1]
  Emax: 0%
  IC50: > 10 µM
[2]
  Emax: 21.2%
  IC50: > 10 µM
[3]; Agonist
  Emax: 0%
  EC50: > 10 µM
[3]; Antagonist
  Curve Bottom: -8.58
  Curve Top: 73.68
  Hill: 1
  Emax: 43.2%
  IC50: 6.01 µM
[4]
  Emax: 20.8%
  IC50: > 10 µM
[5]; Agonist
  Emax: 3.09%
  EC50: > 10 µM
[5]; Antagonist
  Emax: 29.8%
  IC50: > 10 µM
[6]; Agonist
  Emax: 0.54%
  EC50: > 10 µM
[6]; Antagonist
  Emax: 44.8%
  IC50: > 10 µM
[7]
  Emax: 30%
  IC50: > 10 µM
[8]; Agonist
  Emax: 0%
  EC50: > 10 µM
[8]; Antagonist
  Emax: 0%
  IC50: > 10 µM
[9]; Agonist
  Emax: 0%
  EC50: > 10 µM
[9]; Antagonist
  Emax: 13.7%
  IC50: > 10 µM
[10]; Agonist
  Emax: 8.97%
  EC50: > 10 µM
[10]; Antagonist
  Emax: 15.9%
  IC50: > 10 µM
[11]; Agonist
  Emax: 0%
  EC50: > 10 µM
[11]; Antagonist
  Emax: 15.6%
  IC50: > 10 µM
[12]; Agonist
  Emax: 1.69%
  EC50: > 10 µM
[12]; Antagonist
  Emax: 0%
  IC50: > 10 µM

## Cl.Fc1cc(Nc2nc(-c3ccncc3)nc3ncccc23)cc2cc[nH]c12 [BC18813, N-(7-fluoro-1H-indol-5-yl)-2-pyridin-4-ylpyrido[2,3-d]pyrimidin-4-amine hydrochloride]
[1]
  Emax: 9.94%
  IC50: > 10 µM
[2]
  Emax: 6.26%
  IC50: > 10 µM
[3]; Agonist
  Emax: 0%
  EC50: > 10 µM
[3]; Antagonist
  Emax: 45.8%
  IC50: > 10 µM
[4]
  Emax: 22.8%
  IC50: > 10 µM
[5]; Agonist
  Emax: 1.05%
  EC50: > 10 µM
[5]; Antagonist
  Emax: 37.7%
  IC50: > 10 µM
[6]; Agonist
  Emax: 2.22%
  EC50: > 10 µM
[6]; Antagonist
  Emax: 42.9%
  IC50: > 10 µM
[7]
  Emax: 8.29%
  IC50: > 10 µM
[8]; Agonist
  Emax: 1.49%
  EC50: > 10 µM
[8]; Antagonist
  Emax: 6.52%
  IC50: > 10 µM
[9]; Agonist
  Emax: 0.56%
  EC50: > 10 µM
[9]; Antagonist
  Emax: 16.6%
  IC50: > 10 µM
[10]; Agonist
  Emax: 1.07%
  EC50: > 10 µM
[10]; Antagonist
  Emax: 16%
  IC50: > 10 µM
[11]; Agonist
  Emax: 0%
  EC50: > 10 µM
[11]; Antagonist
  IC50: > 10 µM
[12]; Agonist
  Emax: 2.97%
  EC50: > 10 µM
[12]; Antagonist
  Emax: 0%
  IC50: > 10 µM
